Test results: PubChem BioAssay AID1259411 (Chemical Carcinogenesis Research Information System (CCRIS), 2018)
Calls of active or inactive are those of the source. No rule for the calls is given here.

Tested on: rodent carcinogenicity bioassays, tumor incidence
Experiment: CCRIS carcinogenicity studies
Outline: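 Archive of carcinogenicity, mutagenicity, tumor promotion and tumor inhibition results drawn from journals, NCI reports and other sources, expert-reviewed; covers 1985-2011 and is no longer updated.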

O=Cc1ccco1
carcinogen call (Species: MOUSE, Strain/Sex: B6C3F1/FEMALE, Route: GAVAGE, Dose: 0, 50, 100, 175 MG/KG IN CORN OIL 5 D/WK FOR 103 WK (STUDY DURATION: 105 WK), Dose: 0, 50, 100, 175 MG/KG IN CORN OIL 5 D/WK FOR 103 WK (STUDY DURATION: 105 WK), Tumor Site: Type of Lesion: LIVER: HEPATOCELLULAR ADENOMA, HEPATOCELLULAR ADENOMA OR CARCINOMA, FORESTOMACH: SQUAMOUS PAPILLOMA): active; positive
carcinogen call (Species: MOUSE, Strain/Sex: B6C3F1/MALE, Route: GAVAGE, Dose: 0, 50, 100, 175 MG/KG IN CORN OIL 5 D/WK FOR 103 WK (STUDY DURATION: 105 WK), Dose: 0, 50, 100, 175 MG/KG IN CORN OIL 5 D/WK FOR 103 WK (STUDY DURATION: 105 WK), Tumor Site: Type of Lesion: LIVER: HEPATOCELLULAR ADENOMA, HEPATOCELLULAR CARCINOMA): active; positive
carcinogen call (Species: MOUSE, Strain/Sex: CD-1/FEMALE, Route: DERMAL, Dose: 0, 50 UMOL/0.1 ML DMSO 2/WK FOR 5 WK FOLLOWED 1 WK LATER BY 0.1 ML ACETONE 2/WK FOR 47 WK (STUDY DURATION: 52 WK)): inactive; negative
carcinogen call (Species: RAT, Strain/Sex: F344/FEMALE, Route: GAVAGE, Dose: 0, 30, 60 MG/KG IN CORN OIL 5 D/WK FOR 103 WK (STUDY DURATION: 105 WK), Dose: 0, 30, 60 MG/KG IN CORN OIL 5 D/WK FOR 103 WK (STUDY DURATION: 105 WK)): inactive; negative
carcinogen call (Species: RAT, Strain/Sex: F344/MALE, Route: GAVAGE, Dose: 0, 30, 60 MG/KG IN CORN OIL 5 D/WK FOR 103 WK (STUDY DURATION: 105 WK), Dose: 0, 30, 60 MG/KG IN CORN OIL 5 D/WK FOR 103 WK (STUDY DURATION: 105 WK), Tumor Site: Type of Lesion: BILE DUCT: CHOLANGIOCARCINOMA): active; positive

ClC[C@H]1O[C@@H]1Cl
carcinogen call (Species: MOUSE, Strain/Sex: ICR/FEMALE, Route: DERMAL, Dose: 10 MG IN 0.1 ML ACETONE 3/WK FOR LIFE, Tumor Site: Type of Lesion: INTEGUMENTARY SYSTEM (SKIN): PAPILLOMA, SQUAMOUS CELL CARCINOMA): active; positive
carcinogen call (Species: MOUSE, Strain/Sex: ICR/FEMALE, Route: SUBCUTANEOUS, Dose: 500 UG IN 0.05 ML TRICAPRYLIN 1/WK FOR LIFE, Tumor Site: Type of Lesion: INJECTION SITE: FIBROSARCOMA): active; positive

Cc1cccc(C)c1N
carcinogen call (Species: RAT, Strain/Sex: CD/FEMALE, Route: ORAL, Dose: 0, 300, 1000, 3000 PPM IN FEED FOR 102 WK (STUDY DURATION: 104 WK), Dose: 0, 300, 1000, 3000 PPM IN FEED FOR 102 WK (STUDY DURATION: 104 WK), Tumor Site: Type of Lesion: SUBCUTANEOUS TISSUE: FIBROMA, FIBROMA OR FIBROSARCOMA, NASAL CAVITY: PAPILLARY ADENOMA, ADENOMA OR PAPILLARY ADENOMA, CA): active; positive
carcinogen call (Species: RAT, Strain/Sex: CD/MALE, Route: ORAL, Dose: 0, 300, 1000, 3000 PPM IN FEED FOR 102 WK (STUDY DURATION: 104 WK), Dose: 0, 300, 1000, 3000 PPM IN FEED FOR 102 WK (STUDY DURATION: 104 WK), Tumor Site: Type of Lesion: SUBCUTANEOUS TISSUE: FIBROMA, FIBROMA OR NEUROFIBROMA, FIBROMA OR FIBROSARCOMA, NASAL CAVITY: PAPILLARY ADENOMA, CARCINO): active; positive

ClCCCl
carcinogen call (Species: MOUSE, Strain/Sex: B6C3F1/FEMALE, Route: GAVAGE, Dose: 0, 149, 299 MG/KG TWA,5 D/WK FOR 78 WK (STUDY DURATION: 91 WK), Dose: 0, 149, 299 MG/KG TWA,5 D/WK FOR 78 WK (STUDY DURATION: 91 WK), Tumor Site: Type of Lesion: LUNG: ALVEOLAR/BRONCHIOLAR ADENOMA, UTERUS (ENDOMETRIUM): STROMAL POLYP, STROMAL SARCOMA, MAMMARY GLAND: ADENOCARCINOMA, Tumor Site: Type of Lesion: LUNG: ALVEOLAR/BRONCHIOLAR ADENOMA, UTERUS (ENDOMETRIUM): STROMAL POLYP, STROMAL SARCOMA, MAMMARY GLAND: ADENOCARCINOMA): active; positive
carcinogen call (Species: MOUSE, Strain/Sex: B6C3F1/MALE, Route: GAVAGE, Dose: 0, 97, 195 MG/KG TWA, 5 D/WK FOR 78 WK (STUDY DURATION: 90-91 WK), Dose: 0, 97, 195 MG/KG TWA, 5 D/WK FOR 78 WK (STUDY DURATION: 90-91 WK), Tumor Site: Type of Lesion: LUNG: ALVEOLAR/BRONCHIOLAR ADENOMA): active; positive
carcinogen call (Species: MOUSE, Strain/Sex: EU-PIM-1/FEMALE, Route: GAVAGE, Dose: 0, 100, 300 MG/KG 1/D FOR 40 WK (STUDY DURATION: 40 WK), Dose: 0, 100, 300 MG/KG 1/D FOR 40 WK (STUDY DURATION: 40 WK), Tumor Site: Type of Lesion: LYMPHATIC SYSTEM: LYMPHOMA): active; positive
carcinogen call (Species: MOUSE, Strain/Sex: EU-PIM-1/MALE, Route: GAVAGE, Dose: 0, 100, 300 MG/KG 1/D FOR 40 WK (STUDY DURATION: 40 WK), Dose: 0, 100, 300 MG/KG 1/D FOR 40 WK (STUDY DURATION: 40 WK)): inactive; negative
carcinogen call (Species: MOUSE, Strain/Sex: ICR/FEMALE, Route: DERMAL, Dose: 42, 126 MG/APPL/MOUSE IN 0.2 ML ACETONE 3/WK, Tumor Site: Type of Lesion: LUNG: BENIGN PAPILLOMA): active; positive
carcinogen call (Species: RAT, Strain/Sex: OSBORNE-MENDEL/FEMALE, Route: GAVAGE, Dose: 0, 47, 95 MG/KG TWA, 5 D/WK FOR 69 WK (STUDY DURATION: 93-110 WK), Dose: 0, 47, 95 MG/KG TWA, 5 D/WK FOR 69 WK (STUDY DURATION: 93-110 WK), Tumor Site: Type of Lesion: MAMMARY GLAND: ADENOCARCINOMA OR FIBROADENOMA): active; positive
carcinogen call (Species: RAT, Strain/Sex: OSBORNE-MENDEL/MALE, Route: GAVAGE, Dose: 0, 47, 95 MG/KG TWA, 5 D/WK FOR 69 WK (STUDY DURATION: 101-110 WK), Dose: 0, 47, 95 MG/KG TWA, 5 D/WK FOR 69 WK (STUDY DURATION: 101-110 WK), Tumor Site: Type of Lesion: INTEGUMENTARY SYSTEM (SUBCUTANEOUS TISSUE): FIBROMA, FORESTOMACH: SQUAMOUS CELL CARCINOMA, BLOOD VESSELS: HEMANGIOSARCOM, Tumor Site: Type of Lesion: INTEGUMENTARY SYSTEM (SUBCUTANEOUS TISSUE): FIBROMA, FORESTOMACH: SQUAMOUS CELL CARCINOMA, BLOOD VESSELS: HEMANGIOSARCOM): active; positive
carcinogen call (Species: RAT, Strain/Sex: SPRAGUE-DAWLEY/FEMALE, Route: INHALATION, Dose: 0, 5, 10, 50, 150, 250 PPM IN AIR 7 HR/D 5 D/WK FOR 78 WK (STUDY DURATION: LIFETIME), Dose: 0, 5, 10, 50, 150, 250 PPM IN AIR 7 HR/D 5 D/WK FOR 78 WK (STUDY DURATION: LIFETIME), Tumor Site: Type of Lesion: [BRAIN WAS ONLY SITE EVALUATED]): inactive; negative
carcinogen call (Species: RAT, Strain/Sex: SPRAGUE-DAWLEY/FEMALE, Route: INHALATION, Dose: 0, 50 PPM 7 HR/D 5 D/WK FOR 2 YR (STUDY DURATION: 2 YR)): inactive; negative
carcinogen call (Species: RAT, Strain/Sex: SPRAGUE-DAWLEY/MALE, Route: INHALATION, Dose: 0, 5, 10, 50, 150, 250 PPM IN AIR 7 HR/D 5 D/WK FOR 78 WK (STUDY DURATION: LIFETIME), Dose: 0, 5, 10, 50, 150, 250 PPM IN AIR 7 HR/D 5 D/WK FOR 78 WK (STUDY DURATION: LIFETIME), Tumor Site: Type of Lesion: [BRAIN WAS ONLY SITE EVALUATED]): inactive; negative
carcinogen call (Species: RAT, Strain/Sex: SPRAGUE-DAWLEY/MALE, Route: INHALATION, Dose: 0, 50 PPM 7 HR/D 5 D/WK FOR 2 YR (STUDY DURATION: 2 YR)): inactive; negative

CNNC (tested in a mixture with another compound)
carcinogen call (Species: RAT, Strain/Sex: CD-1/MALE, Route: INTRAPERITONEAL, Dose: 0, 10 MG/KG/WK FOR 4 WK (STUDY DURATION: 1 YEAR), Tumor Site: Type of Lesion: PANCREAS: ADENOCARCINOMA, COLON: ADENOCARCINOMA): active; positive

CN(C)C=O
carcinogen call (Species: MOUSE, Strain/Sex: CRL:CD-1(ICR)BR/FEMALE, Route: INHALATION, Dose: 0, 25, 100, 400 PPM 6 HR/D 5 D/WK FOR 18 MO (STUDY DURATION: 18 MO), Dose: 0, 25, 100, 400 PPM 6 HR/D 5 D/WK FOR 18 MO (STUDY DURATION: 18 MO)): inactive; negative
carcinogen call (Species: MOUSE, Strain/Sex: CRL:CD-1(ICR)BR/MALE, Route: INHALATION, Dose: 0, 25, 100, 400 PPM 6 HR/D 5 D/WK FOR 18 MO (STUDY DURATION: 18 MO), Dose: 0, 25, 100, 400 PPM 6 HR/D 5 D/WK FOR 18 MO (STUDY DURATION: 18 MO)): inactive; negative
carcinogen call (Species: RAT, Strain/Sex: CRL:CD BR/FEMALE, Route: INHALATION, Dose: 0, 25, 100, 400 PPM 6 HR/D 5 D/WK FOR 24 MO (STUDY DURATION: 24 MO), Dose: 0, 25, 100, 400 PPM 6 HR/D 5 D/WK FOR 24 MO (STUDY DURATION: 24 MO)): inactive; negative
carcinogen call (Species: RAT, Strain/Sex: CRL:CD BR/MALE, Route: INHALATION, Dose: 0, 25, 100, 400 PPM 6 HR/D 5 D/WK FOR 24 MO (STUDY DURATION: 24 MO), Dose: 0, 25, 100, 400 PPM 6 HR/D 5 D/WK FOR 24 MO (STUDY DURATION: 24 MO)): inactive; negative
